{
  "source": "paper PMC4770093",
  "about": "“The role of kinetic context in apparent biased agonism at GPCRs” (Nature Communications, 2016)",
  "key": {"[1]": {"molecular_target": "T1, D2LR (Homo sapiens, UniProt P14416)", "T1 sequence (P14416 whole entry)": "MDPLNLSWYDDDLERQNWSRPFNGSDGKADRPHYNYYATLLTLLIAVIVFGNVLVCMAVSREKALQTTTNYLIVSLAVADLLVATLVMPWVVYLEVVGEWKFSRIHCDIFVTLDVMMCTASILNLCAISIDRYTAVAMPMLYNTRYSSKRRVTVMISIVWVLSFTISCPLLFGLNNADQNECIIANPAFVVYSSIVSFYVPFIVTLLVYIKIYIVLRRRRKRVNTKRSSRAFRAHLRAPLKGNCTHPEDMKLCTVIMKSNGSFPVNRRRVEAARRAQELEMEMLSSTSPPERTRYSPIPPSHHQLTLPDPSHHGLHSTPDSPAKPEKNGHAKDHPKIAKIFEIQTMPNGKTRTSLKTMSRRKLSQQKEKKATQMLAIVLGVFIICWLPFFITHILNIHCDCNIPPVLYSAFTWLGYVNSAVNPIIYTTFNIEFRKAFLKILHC", "experiment": "GαoB G protein activation (BRET);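 as to all read-outs here: Flp-In-CHO cells stably expressing D2LR, transiently transfected, agonist-stimulated in HBSS at 37 °C, net BRET read after coelenterazine, vehicle control subtracted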", "format": "cell-based", "set-up": "expressed in transfected cells", "details": "for Emax Gao: relative to the maximal response of ropinirole", "procedure": "G protein activation. Flp-In-CHO cells stably expressing the D2LR were seeded at a density of 2,000,000 cells per 10-cm dish and were transfected the following day using polyethylenimine as the transfection reagent. […] Twenty-four hours after transfection, the cells were plated into 96-well CulturPlates (PerkinElmer) and grown overnight. The cells were equilibrated in Hank's balanced salt solution at 37 °C before starting the experiment. The cells were stimulated with the agonists for the indicated timeframes when the BRET readings were captured. Coelenterazine (Promega) was added at a final concentration of 5 μM at least 3 min before measurement. […] Net BRET was determined by subtraction of the vehicle control from the agonist-induced response."}, "[2]": {"molecular_target": "T1, D2LR", "experiment": "Inhibition of forskolin-induced cAMP production (BRET CAMYEL biosensor); as to Inhibition of cAMP production measured using a CAMYEL BRET biosensor, Net BRET: test concentration or dose not given here", "details": "for Emax cAMP: relative to the maximal response of ropinirole; for Inhibition of cAMP production measured using a CAMYEL BRET biosensor, Net BRET: single experiments n = 1, 2, 3"}, "[3]": {"details": "5 minute timepoint, Flp-In-CHO-D2LR"}, "[4]": {"details": "5 minute timepoint, dopamine as reference agonist"}},
  "note": "Where “and” joins values, the source holds several entries; their conditions need not be identical. Equal entries are not always repeated.",
  "data": [
    {"compound": "CCCN1CCC[C@@H](c2cccc(O)c2)C1", "note": "[S-3PPP, (S)-(-)-3-(3-hydroxyphenyl)-N-propylpiperidine]", "values": [
      {"measurement": "Emax Gao", "setting": "[1]; 2 min", "result": "64 ± 5.6"},
      {"measurement": "Emax Gao", "setting": "[1]; 5 min", "result": "68 ± 3.0"},
      {"measurement": "Log(τ/KA) GαoB activation", "setting": "[1]; [3]", "result": "6.40 ± 0.11"},
      {"measurement": "ΔLog(τ/KA) GαoB activation", "setting": "[1]; [4]", "result": "-0.84 ± 0.14"},
      {"measurement": "Emax Gao", "setting": "[1]; 10 min", "result": "73 ±3.1"},
      {"measurement": "Emax Gao", "setting": "[1]; 15 min", "result": "76 ± 2.2"},
      {"measurement": "Emax Gao", "setting": "[1]; 30 min", "result": "74 ± 3.0"},
      {"measurement": "Emax Gao", "setting": "[1]; 45 min", "result": "72 ± 2.2"},
      {"measurement": "Emax Gao", "setting": "[1]; 60 min", "result": "72 ± 2.3"},
      {"measurement": "Emax Gao", "setting": "[1]; 90 min", "result": "77 ± 2.6"},
      {"measurement": "change in potency over time in the GαoB activation assay", "setting": "[1]; time points from 2 to 90 min", "result": "twofold"},
      {"measurement": "Emax cAMP", "setting": "[2]; 2 min", "result": "73 ± 1.9"},
      {"measurement": "Emax cAMP", "setting": "[2]; 5 min", "result": "73 ± 2.0"},
      {"measurement": "Log(τ/KA) cAMP", "setting": "[2]; [3]", "result": "6.65 ± 0.06"},
      {"measurement": "ΔLog(τ/KA) cAMP", "setting": "[2]; [4]", "result": "-1.40 ± 0.08"},
      {"measurement": "Emax cAMP", "setting": "[2]; 10 min", "result": "70 ± 1.7"},
      {"measurement": "Emax cAMP", "setting": "[2]; 15 min", "result": "70 ± 1.9"},
      {"measurement": "Emax cAMP", "setting": "[2]; 30 min", "result": "71 ± 2.5"},
      {"measurement": "Emax cAMP", "setting": "[2]; 45 min", "result": "64 ± 1.4"},
      {"measurement": "Emax cAMP", "setting": "[2]; 60 min", "result": "53 ± 2.4"},
      {"measurement": "Emax cAMP", "setting": "[2]; 75 min", "result": "66 ± 1.4"},
      {"measurement": "Emax cAMP", "setting": "[2]; 90 min", "result": "60 ± 0.8"},
      {"measurement": "Inhibition of cAMP production measured using a CAMYEL BRET biosensor, Net BRET", "setting": "[2]; time 2.21667 mins", "result": "0.05465 and 0.08466 and 0.07325"},
      {"measurement": "Inhibition of cAMP production measured using a CAMYEL BRET biosensor, Net BRET", "setting": "[2]; time 2.58333 mins", "result": "0.05879 and 0.0813 and 0.07011"},
      {"measurement": "Inhibition of cAMP production measured using a CAMYEL BRET biosensor, Net BRET", "setting": "[2]; time 2.95 mins", "result": "0.05876 and 0.09107 and 0.0617"},
      {"measurement": "Inhibition of cAMP production measured using a CAMYEL BRET biosensor, Net BRET", "setting": "[2]; time 3.31667 mins", "result": "0.05926 and 0.0872 and 0.07317"},
      {"measurement": "Inhibition of cAMP production measured using a CAMYEL BRET biosensor, Net BRET", "setting": "[2]; time 3.68333 mins", "result": "0.06005 and 0.08327 and 0.07534"},
      {"measurement": "Inhibition of cAMP production measured using a CAMYEL BRET biosensor, Net BRET", "setting": "[2]; time 4.05 mins", "result": "0.08108 and 0.08891 and 0.07666"},
      {"measurement": "Inhibition of cAMP production measured using a CAMYEL BRET biosensor, Net BRET", "setting": "[2]; time 4.41667 mins", "result": "0.07291 and 0.08859 and 0.07671"},
      {"measurement": "Inhibition of cAMP production measured using a CAMYEL BRET biosensor, Net BRET", "setting": "[2]; time 4.78333 mins", "result": "0.08207 and 0.09068 and 0.07598"},
      {"measurement": "Inhibition of cAMP production measured using a CAMYEL BRET biosensor, Net BRET", "setting": "[2]; time 5.15 mins", "result": "0.088 and 0.08877 and 0.07517"},
      {"measurement": "Inhibition of cAMP production measured using a CAMYEL BRET biosensor, Net BRET", "setting": "[2]; time 5.51667 mins", "result": "0.08023 and 0.0868 and 0.07779"},
      {"measurement": "Inhibition of cAMP production measured using a CAMYEL BRET biosensor, Net BRET", "setting": "[2]; time 5.88333 mins", "result": "0.08241 and 0.08562 and 0.08229"},
      {"measurement": "Inhibition of cAMP production measured using a CAMYEL BRET biosensor, Net BRET", "setting": "[2]; time 6.25 mins", "result": "0.0777 and 0.08078 and 0.07833"},
      {"measurement": "Inhibition of cAMP production measured using a CAMYEL BRET biosensor, Net BRET", "setting": "[2]; time 6.61667 mins", "result": "0.07786 and 0.08188 and 0.07763"},
      {"measurement": "Inhibition of cAMP production measured using a CAMYEL BRET biosensor, Net BRET", "setting": "[2]; time 6.98333 mins", "result": "0.08463 and 0.08155 and 0.08058"},
      {"measurement": "Inhibition of cAMP production measured using a CAMYEL BRET biosensor, Net BRET", "setting": "[2]; time 7.35 mins", "result": "0.08243 and 0.07743 and 0.07354"},
      {"measurement": "Inhibition of cAMP production measured using a CAMYEL BRET biosensor, Net BRET", "setting": "[2]; time 7.71667 mins", "result": "0.08152 and 0.0852 and 0.08224"},
      {"measurement": "Inhibition of cAMP production measured using a CAMYEL BRET biosensor, Net BRET", "setting": "[2]; time 8.08333 mins", "result": "0.08811 and 0.08583 and 0.07638"},
      {"measurement": "Inhibition of cAMP production measured using a CAMYEL BRET biosensor, Net BRET", "setting": "[2]; time 8.45 mins", "result": "0.08386 and 0.08753 and 0.07171"},
      {"measurement": "Inhibition of cAMP production measured using a CAMYEL BRET biosensor, Net BRET", "setting": "[2]; time 8.81667 mins", "result": "0.09076 and 0.08128 and 0.08398"},
      {"measurement": "Inhibition of cAMP production measured using a CAMYEL BRET biosensor, Net BRET", "setting": "[2]; time 9.18333 mins", "result": "0.08865 and 0.08603 and 0.07348"},
      {"measurement": "Inhibition of cAMP production measured using a CAMYEL BRET biosensor, Net BRET", "setting": "[2]; time 9.55 mins", "result": "0.08292 and 0.0837 and 0.08159"},
      {"measurement": "Inhibition of cAMP production measured using a CAMYEL BRET biosensor, Net BRET", "setting": "[2]; time 9.91667 mins", "result": "0.09198 and 0.07873 and 0.08223"},
      {"measurement": "Inhibition of cAMP production measured using a CAMYEL BRET biosensor, Net BRET", "setting": "[2]; time 10.2833 mins", "result": "0.08942 and 0.08142 and 0.08126"},
      {"measurement": "Inhibition of cAMP production measured using a CAMYEL BRET biosensor, Net BRET", "setting": "[2]; time 10.65 mins", "result": "0.09447 and 0.08477 and 0.08651"},
      {"measurement": "Inhibition of cAMP production measured using a CAMYEL BRET biosensor, Net BRET", "setting": "[2]; time 11.0167 mins", "result": "0.09406 and 0.0745 and 0.08653"},
      {"measurement": "Inhibition of cAMP production measured using a CAMYEL BRET biosensor, Net BRET", "setting": "[2]; time 11.3833 mins", "result": "0.09952 and 0.0798 and 0.08963"},
      {"measurement": "Inhibition of cAMP production measured using a CAMYEL BRET biosensor, Net BRET", "setting": "[2]; time 11.75 mins", "result": "0.09797 and 0.09183 and 0.0831"},
      {"measurement": "Inhibition of cAMP production measured using a CAMYEL BRET biosensor, Net BRET", "setting": "[2]; time 12.1167 mins", "result": "0.0995 and 0.08775 and 0.0921"},
      {"measurement": "Inhibition of cAMP production measured using a CAMYEL BRET biosensor, Net BRET", "setting": "[2]; time 12.4833 mins", "result": "0.08767 and 0.08489 and 0.09746"},
      {"measurement": "Inhibition of cAMP production measured using a CAMYEL BRET biosensor, Net BRET", "setting": "[2]; time 12.85 mins", "result": "0.09546 and 0.09264 and 0.08756"},
      {"measurement": "Inhibition of cAMP production measured using a CAMYEL BRET biosensor, Net BRET", "setting": "[2]; time 13.2167 mins", "result": "0.09597 and 0.0888 and 0.1009"},
      {"measurement": "Inhibition of cAMP production measured using a CAMYEL BRET biosensor, Net BRET", "setting": "[2]; time 13.5833 mins", "result": "0.09698 and 0.09198 and 0.09379"},
      {"measurement": "Inhibition of cAMP production measured using a CAMYEL BRET biosensor, Net BRET", "setting": "[2]; time 13.95 mins", "result": "0.09269 and 0.09222 and 0.0998"},
      {"measurement": "Inhibition of cAMP production measured using a CAMYEL BRET biosensor, Net BRET", "setting": "[2]; time 14.3167 mins", "result": 0.1016}
    ]}
  ]
}
